Where two headings read alike, the source gives them in different places.
Assays:
Type in all cases: binding
[1] = molecular target: T1, HeLa cell extract proteins (Homo sapiens, UniProt Q9BVA1); settings: HeLa; protein TUBB2B
T1 construct: endogenous in cells; host or cells: HeLa cell extract

[2] = molecular target: T2, HeLa cell extract proteins (Homo sapiens, UniProt Q9Y5V3); settings: captured protein MAGED1; HeLa
T2 construct: endogenous in cells; host or cells: HeLa cell extract
T2 sequence (Q9Y5V3 1-778): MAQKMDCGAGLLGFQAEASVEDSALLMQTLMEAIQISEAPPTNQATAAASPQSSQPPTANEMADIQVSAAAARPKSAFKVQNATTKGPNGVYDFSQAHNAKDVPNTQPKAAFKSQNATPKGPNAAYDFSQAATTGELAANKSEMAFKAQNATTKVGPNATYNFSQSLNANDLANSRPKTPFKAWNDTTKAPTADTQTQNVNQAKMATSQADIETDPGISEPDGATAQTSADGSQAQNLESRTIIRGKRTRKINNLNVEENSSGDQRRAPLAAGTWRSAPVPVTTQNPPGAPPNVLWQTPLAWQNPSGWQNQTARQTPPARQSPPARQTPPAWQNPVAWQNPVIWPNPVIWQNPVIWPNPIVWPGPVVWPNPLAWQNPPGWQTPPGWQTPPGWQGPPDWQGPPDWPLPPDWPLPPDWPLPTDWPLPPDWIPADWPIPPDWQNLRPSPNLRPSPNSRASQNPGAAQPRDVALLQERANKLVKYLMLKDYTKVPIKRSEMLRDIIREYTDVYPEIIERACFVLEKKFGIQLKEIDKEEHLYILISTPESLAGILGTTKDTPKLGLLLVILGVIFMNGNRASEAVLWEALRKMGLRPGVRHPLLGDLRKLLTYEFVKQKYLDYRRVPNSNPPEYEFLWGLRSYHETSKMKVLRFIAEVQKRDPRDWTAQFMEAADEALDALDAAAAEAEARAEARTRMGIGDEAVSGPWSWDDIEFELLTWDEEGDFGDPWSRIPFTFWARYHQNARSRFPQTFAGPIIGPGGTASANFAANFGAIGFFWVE

[3] = molecular target: T3, HeLa cell extract proteins (Homo sapiens, UniProt O76071)
T3 construct: endogenous in cells; host or cells: HeLa cell extract

[4] = molecular target: T4, HeLa cell extract proteins (Homo sapiens, UniProt O95848)
T4 construct: endogenous in cells; host or cells: HeLa cell extract
T4 sequence (O95848 1-222): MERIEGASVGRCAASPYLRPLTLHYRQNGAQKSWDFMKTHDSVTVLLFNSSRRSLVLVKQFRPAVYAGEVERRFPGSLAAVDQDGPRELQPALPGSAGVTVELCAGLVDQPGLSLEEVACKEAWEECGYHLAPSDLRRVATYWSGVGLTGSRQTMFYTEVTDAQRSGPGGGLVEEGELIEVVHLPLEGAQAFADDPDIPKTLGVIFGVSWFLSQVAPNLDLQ

[5] = molecular target: T5, HeLa cell extract proteins (Homo sapiens, UniProt P18074)
T5 construct: endogenous in cells; host or cells: HeLa cell extract
T5 sequence (P18074 1-760): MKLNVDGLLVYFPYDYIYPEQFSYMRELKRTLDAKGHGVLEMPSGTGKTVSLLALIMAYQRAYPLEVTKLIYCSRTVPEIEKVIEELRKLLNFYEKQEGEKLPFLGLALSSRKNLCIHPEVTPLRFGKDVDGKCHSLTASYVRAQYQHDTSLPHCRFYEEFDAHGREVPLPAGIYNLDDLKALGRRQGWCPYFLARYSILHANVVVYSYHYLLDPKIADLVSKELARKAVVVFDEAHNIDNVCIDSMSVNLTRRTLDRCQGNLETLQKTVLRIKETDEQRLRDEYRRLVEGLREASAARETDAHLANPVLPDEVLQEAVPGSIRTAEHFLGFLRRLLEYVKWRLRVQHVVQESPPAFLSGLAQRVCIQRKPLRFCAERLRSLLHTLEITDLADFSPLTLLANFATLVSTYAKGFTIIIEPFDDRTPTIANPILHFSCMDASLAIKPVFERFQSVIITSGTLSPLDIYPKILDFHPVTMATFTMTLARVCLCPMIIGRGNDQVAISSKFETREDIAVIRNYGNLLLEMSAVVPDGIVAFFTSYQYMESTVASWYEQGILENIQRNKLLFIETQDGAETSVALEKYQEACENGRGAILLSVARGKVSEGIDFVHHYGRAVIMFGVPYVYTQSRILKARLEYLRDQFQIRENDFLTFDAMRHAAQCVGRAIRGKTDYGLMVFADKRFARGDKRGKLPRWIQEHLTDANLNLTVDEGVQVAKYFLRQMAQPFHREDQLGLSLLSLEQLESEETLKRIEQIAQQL

[6] = molecular target: T6, HeLa cell extract proteins (Homo sapiens, UniProt P68871)
T6 construct: endogenous in cells; host or cells: HeLa cell extract

[7] = molecular target: T7, HeLa cell extract proteins (Homo sapiens, UniProt Q15020)
T7 construct: endogenous in cells; host or cells: HeLa cell extract
T7 sequence (Q15020 1-963): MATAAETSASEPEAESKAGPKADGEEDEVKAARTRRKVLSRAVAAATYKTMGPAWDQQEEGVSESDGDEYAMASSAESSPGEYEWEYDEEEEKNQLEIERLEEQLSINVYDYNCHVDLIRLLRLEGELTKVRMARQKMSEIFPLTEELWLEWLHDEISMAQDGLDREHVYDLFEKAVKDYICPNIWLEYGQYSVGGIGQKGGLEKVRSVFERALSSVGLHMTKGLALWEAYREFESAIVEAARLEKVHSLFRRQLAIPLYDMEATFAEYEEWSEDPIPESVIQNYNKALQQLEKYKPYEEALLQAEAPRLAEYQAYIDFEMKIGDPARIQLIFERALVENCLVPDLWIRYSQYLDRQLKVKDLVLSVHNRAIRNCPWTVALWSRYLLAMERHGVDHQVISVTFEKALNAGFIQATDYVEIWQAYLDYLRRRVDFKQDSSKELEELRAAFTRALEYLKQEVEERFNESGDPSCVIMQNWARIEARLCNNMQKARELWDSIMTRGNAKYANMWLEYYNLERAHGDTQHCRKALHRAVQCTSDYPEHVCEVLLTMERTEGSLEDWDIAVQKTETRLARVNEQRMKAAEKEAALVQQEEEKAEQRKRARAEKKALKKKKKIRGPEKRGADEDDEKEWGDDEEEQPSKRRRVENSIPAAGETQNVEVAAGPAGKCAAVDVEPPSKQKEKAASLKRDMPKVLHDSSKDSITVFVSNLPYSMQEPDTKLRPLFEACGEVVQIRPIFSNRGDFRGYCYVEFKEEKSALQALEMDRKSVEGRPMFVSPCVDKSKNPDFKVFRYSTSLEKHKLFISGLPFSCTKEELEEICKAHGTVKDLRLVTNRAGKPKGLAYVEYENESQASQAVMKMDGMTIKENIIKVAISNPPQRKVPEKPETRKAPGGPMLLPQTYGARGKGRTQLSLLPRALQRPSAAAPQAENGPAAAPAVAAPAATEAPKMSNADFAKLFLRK

[8] = HeLa, protein HBB (BETA-GLOBIN GENE FROM A T[…])

T3 sequence (O76071 whole entry): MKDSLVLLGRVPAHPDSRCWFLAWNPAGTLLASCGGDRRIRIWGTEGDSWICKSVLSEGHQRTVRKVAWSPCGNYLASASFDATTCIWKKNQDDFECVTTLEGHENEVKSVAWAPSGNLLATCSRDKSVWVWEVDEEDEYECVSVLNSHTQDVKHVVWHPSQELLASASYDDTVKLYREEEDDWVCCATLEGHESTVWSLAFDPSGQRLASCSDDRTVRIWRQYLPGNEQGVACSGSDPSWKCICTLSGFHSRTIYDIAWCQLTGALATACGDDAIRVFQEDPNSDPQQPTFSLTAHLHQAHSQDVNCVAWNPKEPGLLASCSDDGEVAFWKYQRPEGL
T1 sequence (Q9BVA1 whole entry): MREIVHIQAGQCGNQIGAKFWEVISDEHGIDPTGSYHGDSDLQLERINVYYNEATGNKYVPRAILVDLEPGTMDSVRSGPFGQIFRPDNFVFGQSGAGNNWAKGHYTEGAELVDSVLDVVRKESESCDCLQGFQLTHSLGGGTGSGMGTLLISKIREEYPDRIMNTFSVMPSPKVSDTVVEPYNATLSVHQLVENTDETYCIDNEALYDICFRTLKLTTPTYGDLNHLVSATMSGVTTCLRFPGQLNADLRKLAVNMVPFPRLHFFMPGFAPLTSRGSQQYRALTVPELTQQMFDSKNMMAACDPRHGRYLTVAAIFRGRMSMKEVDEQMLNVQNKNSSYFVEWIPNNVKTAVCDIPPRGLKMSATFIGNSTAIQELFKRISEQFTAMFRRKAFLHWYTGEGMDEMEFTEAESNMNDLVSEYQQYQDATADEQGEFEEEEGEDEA
T6 sequence (P68871 whole entry): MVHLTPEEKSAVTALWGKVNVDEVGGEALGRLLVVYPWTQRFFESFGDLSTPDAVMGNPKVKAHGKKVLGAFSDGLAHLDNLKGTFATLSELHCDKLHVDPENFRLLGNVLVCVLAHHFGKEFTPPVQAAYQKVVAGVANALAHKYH

Nc1nc2cccc(-c3ccccc3)c2n1Cc1ccc(Cl)c(Cl)c1 [compound 3]
fold changes relative to vehicle control [1]: 1.11 | fold changes relative to vehicle control [2]: 0.88

CCCCCCOc1ccc(Cc2cnc(N)nc2N)cc1 [compound 1]
fold changes relative to vehicle control [1]: 1.07 | fold changes relative to vehicle control [2]: 0.98

NCCCNc1ccc(C(=O)NC(CCC(=O)O)C(=O)O)cc1 (centres unmarked) [compound 7]
fold changes relative to vehicle control ([3]; HeLa, protein CIAO1): 0.91 | fold changes relative to vehicle control ([4]; protein NUDT14, HeLa): 0.97 | fold changes relative to vehicle control ([5]; HeLa, captured protein ERCC2): 1 | fold changes relative to vehicle control [6, 8]: 0.87 | fold changes relative to vehicle control ([7]; protein SART3, HeLa): 0.94

CCCCCCOc1cccc(Cc2cnc(N)nc2N)c1 [compound 2]
fold changes relative to vehicle control [1]: 1.03 | fold changes relative to vehicle control [2]: 0.78

NCCOCCOCC(=O)Nc1nc2ncc(CNc3ccc(C(=O)NC(CCC(=O)O)C(=O)O)cc3)nc2c(=O)[nH]1 (centres unmarked) [compound 6]
fold changes relative to vehicle control ([3]; HeLa, protein CIAO1): 0.93 | fold changes relative to vehicle control ([4]; protein NUDT14, HeLa): 0.8 | fold changes relative to vehicle control ([5]; HeLa, captured protein ERCC2): 0.98 | fold changes relative to vehicle control [6, 8]: 0.99 | fold changes relative to vehicle control ([7]; protein SART3, HeLa): 0.89

Nc1nc2[nH]cc(CCc3ccc(C(=O)N[C@@H](CCC(=O)O)C(=O)O)cc3)c2c(=O)[nH]1 [PTX, pemetrexed]
fold changes relative to vehicle control [3]: 0.86 | fold changes relative to vehicle control [4]: 0.49 | fold changes relative to vehicle control [5]: 0.98 | fold changes relative to vehicle control [6]: 0.94 | fold changes relative to vehicle control [7]: 0.84

Nc1nc2c(c(=O)[nH]1)N(C=O)C(CNc1ccc(C(=O)N[C@@H](CCC(=O)O)C(=O)O)cc1)CN2 (some centres unmarked) [LEU, leucovorin]
fold changes relative to vehicle control ([3]; HeLa, protein CIAO1): 0.94 | fold changes relative to vehicle control ([4]; protein NUDT14, HeLa): 1.01 | fold changes relative to vehicle control ([5]; HeLa, captured protein ERCC2): 1.14 | fold changes relative to vehicle control [6, 8]: 1.13 | fold changes relative to vehicle control ([7]; protein SART3, HeLa): 0.82

Source: paper PMC6199744, “Development of Chemical Proteomics for the Folateome and Analysis of the Kinetoplastid Folateome” (ACS Infectious Diseases, 2018)
